Data on 120 compounds can be found in a melting point compilation (Tetko et al.).

A value given as a limit tells only on which side of the number the result lay.

As a reminder, the melting point is the temperature of the solid-liquid transition. The compound `c1ccc(-c2nnn[nH]2)nc1` gave a melting point of 214 to 216 °C.

`NC(=O)CN(Cc1ccccc1)c1cccc(N)c1` showed a melting point of 169 to 171 °C. Then `CC1Cc2ccccc2N1S(=O)(=O)c1cccc(C(=O)O)c1` (stereo not given), with 170 to 172 °C; and `COc1ccc(N)cc1-n1nnnc1C`, with 130 to 132 °C; and `Cc1nn(CC(=O)O)c(C)c1[N+](=O)[O-]`, with 179 to 181 °C. On to `O=C(CCl)c1cn(-c2cccc(C(F)(F)F)c2)nn1`, for which the melting point lay within 162 to 164 °C. Then `O=C(O)C1CCCN1c1ncnc2sccc12` (stereo not given), with 211 to 213 °C; and `CS(=O)(=O)c1snc(O)c1C#N`, with 235 to 237 °C; and `Nc1nnc(SCc2ccccc2)s1`, with 159 to 161 °C. Compound `O=C(O)C1CC12CCOc1ccccc12` (stereo not given) registered a melting point of 159 to 161 °C. With `NC(=S)COc1ccccc1-c1ccccc1`, the melting point fell in the range of 177 to 179 °C. With `NC1CCN(c2ccc(F)c(Cl)c2)C1=O` (stereo not given), the melting point fell in the range of 110 to 112 °C.

Consider `O=C(CO)c1ccc(F)cc1F`, for which the melting point lay in the range of 95 to 97 °C. In turn, `COC(=O)c1cc(S(=O)(=O)Cl)c(C(=O)OC)s1` came in with a melting point of 129 to 131 °C. Take `O=C(O)c1nc2ncc(Br)cn2n1`: the melting point lay in the range of 199 to 201 °C. On to `Nc1ccc(-c2nc3cc(Br)ccc3s2)cc1`, for which the melting point is 189 to 191 °C. In the case of `Nc1c(C(=O)c2ccco2)oc2ccccc12`, the melting point lay in the range of 180 to 182 °C. In turn, `O=Cc1coc2ccc([N+](=O)[O-])cc2c1=O` registered a melting point of 157 to 161 °C. `O=C(O)Cc1ccc(NC(=O)c2ccccc2I)cc1` registered a melting point of 226 to 228 °C. `CCOC(=O)Cn1[nH]cc(C#N)c1=N`: the melting point fell in the range of 121 to 123 °C. The compound `O=C1OC(C(O)CO)C(O)=C1O` (stereo not given) gave a melting point of 192 to 196 °C. As for `c1ccc(CN2CCN(Cc3ccccc3)CC2)cc1`, the melting point was in the range of 89 to 91 °C. In the case of `O=C(c1ccccn1)c1cc2ccccc2o1`, the melting point lay in the range of 96 to 98 °C. With `COc1ccc(N2CCC(=O)CC2)cc1` the figure was 66 to 68 °C; with `ClCc1csc(-c2ccco2)n1`, 76 to 78 °C. Turning to `CNS(=O)(=O)c1cc(N)ccc1OC`, the melting point is 169 to 171 °C. Then `O=C(O)c1cccn1-c1cccc(I)c1`, with 165 to 167 °C.

In turn, `CC(C)Oc1cc(Br)cc(C(=O)O)c1` came in with a melting point of 126 to 128 °C.

`COc1ccccc1NS(=O)(=O)c1ccc(N2CCOCC2)c(N)c1` yielded a melting point of 150 to 152 °C. Then `Cc1nn(-c2ccc(F)cc2)c(C)c1C(=O)O`, with 219 to 221 °C.

Compound `CC(C)(C)OC(=O)NC(CN)C1CC1` (stereo not given) returned a melting point of 57 to 59 °C. In turn, `N#CCC(=O)NN1CCCCC1=O` yielded a melting point of 146 to 148 °C. Compound `CCOC(=O)c1cnn(-c2ccc(C(F)(F)F)cn2)c1C(F)(F)F` registered a melting point of 98 to 100 °C. With `COc1ccc(NC(=O)NN)cc1` the figure was 146 to 148 °C; with `CC(C)(C)C(=O)C(Cl)Cl`, 50 to 52 °C.

Take `COc1ccc(S(=O)(=O)Nc2ncc(Br)s2)cc1`: the melting point lay in the range of 132 to 134 °C.

On to `COc1cc(-c2noc(CCl)n2)ccc1OC(F)F`, for which the melting point lay within 46 to 50 °C. Compound `Cn1ccnc1-c1noc(N)n1` returned a melting point of 197 to 199 °C.

With `CC(=O)c1ccc(N2CCNCC2)c(F)c1`, the melting point is 104 to 106 °C. In the case of `Cc1cc(-n2nc(C)cc2N)nc(C)n1`, the melting point was in the range of 104 to 106 °C. As for `O=C(O)CCNS(=O)(=O)c1cccc([N+](=O)[O-])c1`, the melting point was in the range of 134 to 136 °C.

For the compound `COC(=O)C(O)c1cccc(O)c1` (stereo not given), the melting point is 124 to 126 °C. On to `Clc1nc2cccnc2nc1Cl`, for which the melting point was 143 to 145 °C. On to `O=C(O)c1ccc2c(c1)C(=O)N(C1CCS(=O)(=O)C1)C2=O` (stereo not given), for which the melting point lay in the range of 239 to 241 °C. For the compound `Cc1nc(Cl)nc(C)c1Cc1ccccc1`, the melting point was in the range of 42 to 44 °C.

Compound `COc1cccc(Nc2ccccc2C(=O)O)c1` returned a melting point of 135 to 137 °C. In turn, `CCNc1cc(C(=O)O)ccn1` showed a melting point of 291 to 293 °C. With `CC(C)(C)OC(=O)N1CCC(OC(=O)c2cccc(N)c2)CC1`, the melting point was 124 to 126 °C. With `CC(=O)C12CC3CC(C1)CC(C(=O)O)(C3)C2` the figure was 123 to 125 °C; with `COc1ccc(Oc2ccc(S(N)(=O)=O)cc2)cc1`, 169 to 171 °C; with `NS(=O)(=O)c1ccc(CNC(=O)OCC(F)(F)F)cc1`, 150 to 152 °C. With `Cc1cc(C)c2nc(O)cc(C)c2c1` the figure was 261 to 263 °C; with `CN(C)Cc1ccc(C(=N)N)cc1`, 124 to 126 °C. As to `O=C(O)c1ccc(Br)cc1C(F)(F)F`, the melting point was 116 to 117 °C. As for `Nc1ncc(-c2ccccc2)s1`, the melting point lay within 198 to 200 °C. As to `O=C(O)CCOc1ccccc1[N+](=O)[O-]`, the melting point was in the range of 121 to 123 °C. On to `Cc1nn(-c2ccccc2)c2ncc(C(=O)O)cc12`, for which the melting point fell in the range of 278 to 280 °C.

`FC(F)Oc1ccccc1-c1noc(CCl)n1` registered a melting point below 17 °C. `O=C1CCOc2c(Cl)cccc21` displayed a melting point of 62 to 64 °C. Then `COCCOc1c(N)cccc1Cl`, with 56 to 58 °C; and `O=C(O)c1cccc(OCc2ccccc2OC(F)F)c1`, with 139 to 141 °C. In turn, `Cc1ccccc1-n1c(S)nc2scc(-c3ccccc3)c2c1=O` showed a melting point of 157 to 159 °C. In turn, `Sc1nnc(-c2c[nH]c3ccccc23)o1` showed a melting point of 218 to 225 °C. As to `CC1CCN(Cc2ccccc2CN)CC1`, the melting point was in the range of 161 to 163 °C. `COc1nc(C)cc(=O)[nH]1` displayed a melting point of 199 to 201 °C. Consider `Cn1c(S)nnc1C(F)F`, for which the melting point is 171 to 173 °C. Then `N#Cc1cccc(-c2nnc(N)o2)c1`, with 253 to 255 °C; and `O=C(O)c1ccc2nnc(C3CC3)n2c1`, with 290 to 292 °C.

Regarding `O=C(O)c1c(Cl)cc(C(F)(F)F)cc1Cl`, the melting point is 140 to 142 °C. Compound `C=CCNS(=O)(=O)c1ccccc1F` returned a melting point of 100 to 102 °C.

As to `Cc1ccc(C(=O)O)cc1NCc1ccc(Br)o1`, the melting point lay in the range of 125 to 127 °C.

`Nc1cccnc1Oc1ccccc1`: the melting point was 107 to 109 °C. With `COC(=O)c1snc(-c2ccccc2)c1N` the figure was 114 to 116 °C; with `Nc1nnc(Cc2ccc(F)cc2)[nH]1`, 197 to 199 °C; with `Nc1nncc(-c2ccc(F)cc2)n1`, 248 to 250 °C. As to `O=C(O)c1ccn(-c2cccc(Cl)c2)n1`, the melting point was in the range of 143 to 145 °C. `NC(=O)CN1CC(O)CC1=O` (stereo not given) registered a melting point of 133 to 135 °C. As for `O=C(Nc1cccnc1)c1ccc(O)cc1`, the melting point was 273 to 275 °C. Turning to `NNc1nc(-c2ccccc2)no1`, the melting point is 177 to 179 °C. For `Nc1ccc(-c2cc[nH]n2)cc1`, the melting point is 99 to 101 °C.

In the case of `CC(Cl)C(=O)Nc1ccc(C(F)(F)F)cc1` (stereo not given), the melting point lay in the range of 130 to 132 °C. As to `COc1ccc(NS(=O)(=O)c2cc(N)ccc2N2CCCCC2)cc1`, the melting point is 145 to 154 °C. Regarding `NCc1ccc(N2CCOCC2)c(F)c1`, the melting point lay in the range of 36 to 38 °C. Turning to `O=C(O)CCC(=O)N1CCOCC1`, the melting point is 61 to 65 °C. In the case of `NS(=O)(=O)NCc1ccccn1`, the melting point was in the range of 138 to 140 °C. For `NC(=O)c1cc(CCO)c(C(F)(F)F)[nH]c1=O`, the melting point was in the range of 230 to 232 °C. With `COc1ccc(N=C=S)cc1Cl` the figure was 88 to 90 °C. The compound `N#Cc1ccc(Cc2cnc(N)s2)c(C(F)(F)F)c1` showed a melting point of 196 to 198 °C.

Turning to `CCOC(=O)C(=O)C=Cc1ccsc1`, the melting point lay in the range of 53 to 55 °C.

In turn, `NCCNC(CC(=O)O)C(N)=O` (stereo not given) showed a melting point of 161 to 163 °C. Then `COc1ccc(N2CC(C(=O)O)CC2=O)cc1OC` (stereo not given), with 201 to 203 °C; and `O=C(O)CNC(=O)C=Cc1cccnc1`, with 264 to 266 °C; and `c1ccc(Cc2nnc3n2CCNC3)cc1`, with 111 to 113 °C. As to `Cc1c(N)cccc1N1CCCC1=O`, the melting point lay in the range of 170 to 172 °C.

As to `COCCc1ccc2oc(N)nc2c1`, the melting point was in the range of 159 to 161 °C.

`Cc1nc(C(=O)O)nn1-c1ccccc1Cl` displayed a melting point of 189 to 191 °C.

As to `O=C(O)CCc1cn(Cc2ccc(Cl)cc2)c2ccccc12`, the melting point was 139 to 141 °C.

`O=C(O)c1ccc(F)c(S(=O)(=O)NC2CC2)c1` had a melting point of 226 to 228 °C. As to `Cn1cccc1-c1csc(N)n1`, the melting point fell in the range of 79 to 81 °C. Then `CCC(=O)C(N)=O`, with 94 to 96 °C; and `CCc1nc2ccccc2n1CC#N`, with 104 to 106 °C; and `COCc1ccc(CNC(=O)CCl)cc1`, with 83 to 85 °C. The compound `CC(C)(C)n1ncc(C#N)c1N` yielded a melting point of 90 to 92 °C. `CC(C)c1nnc(S)n1C` registered a melting point of 139 to 141 °C. As for `O=C(CCl)c1cc2c3c(c1)CC(=O)N3CCC2`, the melting point lay in the range of 159 to 161 °C. Then `CCCS(=O)(=O)NC(C(=O)OCC)C(=O)OCC`, with 40 to 42 °C; and `OCc1cc(F)cc(CO)c1O`, with 119 to 121 °C; and `N#CC(C(=O)N1CCCCC1)c1ccc(C(F)(F)F)cn1` (stereo not given), with 137 to 139 °C. `CC(Oc1cc(Cl)cc(Cl)c1)C(=O)O` (stereo not given) displayed a melting point of 142 to 144 °C. For the compound `Nc1ccc(Br)c(C(=O)O)c1`, the melting point lay in the range of 171 to 179 °C.

`Nc1nnc(-c2ccncc2)o1`: the melting point fell in the range of 239 to 241 °C. Then `CC(=O)NC(CC(=O)O)c1ccc(F)cc1F` (stereo not given), with 149 to 151 °C; and `O=[N+]([O-])c1ccn(C2CCCCC2O)n1` (stereo not given), with 94 to 96 °C; and `CC(C)(C)NC(=O)N1CCCc2c(C(=O)O)cccc21`, with 134 to 136 °C. As to `O=C(O)CC(Cc1ccccc1)Cc1ccccc1`, the melting point fell in the range of 82 to 84 °C.

`O=c1c2cc(Cl)cc(Cl)c2nc2n1CCC2` gave a melting point of 245 to 247 °C. `COc1ccc(C(=O)O)cc1-c1ccccc1` displayed a melting point of 220 to 222 °C. Then `O=C(O)c1ccc(-c2ccc(F)cc2)cc1F`, with 237 to 239 °C. Turning to `CCCC(N)c1nnn[nH]1` (stereo not given), the melting point was 277 to 279 °C. Take `Cc1ccc(C)c(NC(=S)NN)c1`: the melting point was 162 to 164 °C.
